Patent US20070213346A1, “Substituted 4-Alkyl-And 4-Alkanoyl-Piperidine Derivatives And Their Use As Neurokinin Antagonists” (priority 2004, published 2007)

Tests used:
Type in all cases: cell-based
NK1 = NK1 (Homo sapiens, UniProt P25103); assay: Signal transduction (ST), intracellular Ca++ FLIPR, NK1; details: antagonist, Ca++ transient peak, read-out: NK1 pIC50 (converted)
Protocol: (§1) This test evaluates in vitro functional NK1 antagonistic activity. For the measurements of intracellular Ca^++ concentrations the cells were grown on 96-well (black wall/transparent bottom) plates from Costar for 2 days until they reached confluence. The cells were loaded with 2 μM Fluo3 in DMEM containing 0.1% BSA and 2.5 mM probenecid for 1 h at 37° C. They were washed 3× with a Krebs buffer (140 mM NaCl, 1 mM MgCl2x6H2O, 5 mM KCl, 10 mM glucose, 5 mM HEPES; 1.25 mM CaCl2; pH 7.4) containing 2.5 mM probenecid and 0.1% BSA (Ca^++-buffer). The cells were preincubated with a concentration range of antagonists for 20 min at RT and Ca^++-signals after addition of the agonists were measured in a Fluorescence Image Plate Reader (FLIPR from Molecular Devices, Crawley, England). The peak of the Ca^++-transient was considered as the relevant signal and the mean values of corresponding wells were analysed as described below.
The sigmoidal dose response curves were analysed by computerised curve-fitting, using the GraphPad program. The EC50-value of a compound is the effective dose showing 50% of maximal effect. For mean curves the response to the agonist with the highest potency was normalised to 100%. For antagonist responses the IC50-value was calculated using non-linear regression. […]

NK3 = biological target: T1, NK3 (Homo sapiens, UniProt P29371); assay: Signal transduction (ST), intracellular Ca++ FLIPR, NK3; details: antagonist, Ca++ transient peak, read-out: NK3 pIC50 (converted)
T1 sequence (P29371 1-465): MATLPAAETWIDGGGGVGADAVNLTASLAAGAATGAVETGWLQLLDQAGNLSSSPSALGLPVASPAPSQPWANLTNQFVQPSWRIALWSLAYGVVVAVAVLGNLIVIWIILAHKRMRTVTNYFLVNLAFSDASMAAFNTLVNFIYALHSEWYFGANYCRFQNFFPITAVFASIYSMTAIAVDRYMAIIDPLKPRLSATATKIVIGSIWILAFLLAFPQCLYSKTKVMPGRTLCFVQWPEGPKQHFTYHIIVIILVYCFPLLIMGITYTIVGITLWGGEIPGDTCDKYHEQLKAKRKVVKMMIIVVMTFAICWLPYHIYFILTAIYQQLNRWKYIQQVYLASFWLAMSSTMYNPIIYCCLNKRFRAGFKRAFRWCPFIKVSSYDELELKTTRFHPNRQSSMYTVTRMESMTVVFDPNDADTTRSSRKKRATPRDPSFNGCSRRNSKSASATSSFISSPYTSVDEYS
Protocol: [The source words this procedure for another target and reports this target under the same test.] as §1
(§2) The sigmoidal dose response curves were analysed by computerised curve-fitting, using the GraphPad program. The EC50-value of a compound is the effective dose showing 50% of maximal effect. For mean curves the response to the agonist with the highest potency was normalised to 100%. For antagonist responses the IC50-value was calculated using non-linear regression.
(§3) The last columns indicates—without being limited thereto—for which use the compounds might be most suitable. Of course, since for some neurokinin receptors no data was determined, it is obvious that these compounds might be attributed to another suitable use.

NK2 = biological target: T2, NK2 (Homo sapiens, UniProt P21452); assay: Signal transduction (ST), intracellular Ca++ FLIPR, NK2; details: antagonist, Ca++ transient peak, read-out: NK2 pIC50 (converted)
T2 sequence (P21452 1-398): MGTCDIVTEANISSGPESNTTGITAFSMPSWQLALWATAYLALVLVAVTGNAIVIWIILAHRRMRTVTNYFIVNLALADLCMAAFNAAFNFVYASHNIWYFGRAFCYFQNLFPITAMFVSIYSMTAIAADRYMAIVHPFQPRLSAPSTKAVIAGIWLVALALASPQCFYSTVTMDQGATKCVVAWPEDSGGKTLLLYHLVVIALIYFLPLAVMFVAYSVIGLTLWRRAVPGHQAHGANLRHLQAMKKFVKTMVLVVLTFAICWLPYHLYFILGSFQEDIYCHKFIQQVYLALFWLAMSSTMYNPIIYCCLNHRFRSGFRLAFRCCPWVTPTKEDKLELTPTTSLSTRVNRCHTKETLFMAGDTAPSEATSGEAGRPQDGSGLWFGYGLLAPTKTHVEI
Protocol: [The source words this procedure for another target and reports this target under the same test.] as §1, §2, §3

Chain of NK1 (P25103 whole entry): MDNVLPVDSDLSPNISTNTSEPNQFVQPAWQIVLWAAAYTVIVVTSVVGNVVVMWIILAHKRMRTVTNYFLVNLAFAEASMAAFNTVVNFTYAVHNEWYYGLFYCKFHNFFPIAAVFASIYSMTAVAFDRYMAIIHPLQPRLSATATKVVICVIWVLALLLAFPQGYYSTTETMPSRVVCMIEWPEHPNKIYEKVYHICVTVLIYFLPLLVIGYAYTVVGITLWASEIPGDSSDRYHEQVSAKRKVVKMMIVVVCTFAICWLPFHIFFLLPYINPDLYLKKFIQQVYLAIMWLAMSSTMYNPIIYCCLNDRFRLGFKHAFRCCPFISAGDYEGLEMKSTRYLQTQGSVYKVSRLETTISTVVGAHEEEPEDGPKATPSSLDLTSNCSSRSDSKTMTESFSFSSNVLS

Row | IC50 (NK1) [µM] | IC50 (NK3) [µM] | IC50 (NK2) [µM] | Structure (SMILES)
1 | 0.0708 | > 10 | > 10 | Cc1nnsc1C(=O)N1CCC(N2CCN(C[C@H]3CCN(C(=O)c4cc(C(F)(F)F)cc(C(F)(F)F)c4)[C@H](Cc4ccccc4)C3)CC2)C1 (stereo partly drawn) [Compound 63]
2 | 0.148 | > 10 | > 10 | O=C(c1cc(C(F)(F)F)cc(C(F)(F)F)c1)N1CCC(O)(CN2CCN(C3CCNC3)CC2)CC1Cc1ccccc1 (stereo not drawn) [Compound 76]
3 | 0.0123 | 0.692 | 4.68 | O=C(C1CC1)N1CCC(N2CCN(C(=O)[C@H]3CCN(C(=O)c4cc(C(F)(F)F)cc(C(F)(F)F)c4)[C@H](Cc4ccccc4)C3)CC2)CC1 [Compound 56]
4 | 0.0427 | 2.88 | 7.94 | O=C(C1CC1)N1CCC(N2CCN(CC3(O)CCN(C(=O)c4cc(C(F)(F)F)cc(C(F)(F)F)c4)C(Cc4ccccc4)C3)CC2)C1 (stereo not drawn) [Compound 77]
5 | 0.1 | > 10 | 7.24 | O=C(c1ccsc1)N1CCC(N2CCN(C[C@H]3CCN(C(=O)c4cc(C(F)(F)F)cc(C(F)(F)F)c4)[C@H](Cc4ccccc4)C3)CC2)C1 (stereo partly drawn) [Compound 62]
6 | 0.0316 | 7.24 | 9.12 | O=C(c1ccccc1)N1CCC(N2CCN(CC3(O)CCN(C(=O)c4cc(C(F)(F)F)cc(C(F)(F)F)c4)C(Cc4ccccc4)C3)CC2)C1 (stereo not drawn) [Compound 79]
7 | 0.275 | 7.08 | 8.91 | O=C(c1cccs1)N1CCC(N2CCN(C[C@H]3CCN(C(=O)c4cc(C(F)(F)F)cc(C(F)(F)F)c4)[C@H](Cc4ccccc4)C3)CC2)CC1 (relative stereo) [Compound 37]
8 | 0.0741 | > 10 | > 10 | O=C(C1CC1)N1CCC(N2CCN(C[C@H]3CCN(C(=O)c4cc(C(F)(F)F)cc(C(F)(F)F)c4)[C@H](Cc4ccccc4)C3)CC2)C1 (stereo partly drawn) [Compound 61]
9 | 0.0933 | > 10 | > 10 | Cn1c(Cl)cnc1CN1CCC(N2CCN(CC3CCN(C(=O)c4cc(C(F)(F)F)cc(C(F)(F)F)c4)C(Cc4ccccc4)C3)CC2)CC1 (stereo not drawn) [Compound 20]
10 | 0.0851 | 5.25 | 7.24 | O=C(c1cc(C(F)(F)F)cc(C(F)(F)F)c1)N1CCC(CN2CCN(C3CCN(c4ncccn4)CC3)CC2)CC1Cc1ccccc1 (stereo not drawn) [Compound 17]
11 | 0.0501 | ~7.94 | 7.41 | O=C(c1ccoc1)N1CCC(N2CCN(CC3CCN(C(=O)c4cc(C(F)(F)F)cc(C(F)(F)F)c4)C(Cc4ccccc4)C3)CC2)C1 (stereo not drawn) [Compound 11]
12 | 0.316 | ~9.77 | 2.34 | COc1cccc(CC(=O)N2CCC(N3CCN(CC4CCN(C(=O)c5cc(C(F)(F)F)cc(C(F)(F)F)c5)C(Cc5ccccc5)C4)CC3)CC2)c1 (stereo not drawn) [Compound 52]
13 | 0.0302 | > 10 | 8.13 | O=C(c1cccnc1)N1CCC(N2CCN(CC3(O)CCN(C(=O)c4cc(C(F)(F)F)cc(C(F)(F)F)c4)C(Cc4ccccc4)C3)CC2)C1 (stereo not drawn) [Compound 80]
14 | 0.288 | 7.94 | > 10 | O=C(c1cc(C(F)(F)F)cc(C(F)(F)F)c1)N1CCC(CN2CCN(C3CCN(c4cnccn4)CC3)CC2)CC1Cc1ccccc1 (stereo not drawn) [Compound 19]
15 | 0.229 | > 10 | > 10 | Cc1ccc(N2CCC(N3CCN(CC4CCN(C(=O)c5cc(C(F)(F)F)cc(C(F)(F)F)c5)C(Cc5ccccc5)C4)CC3)CC2)nn1 (stereo not drawn) [Compound 18]
16 | 0.182 | > 10 | > 10 | O=C(c1cc(C(F)(F)F)cc(C(F)(F)F)c1)N1CCC(CN2CCN(C3CCNC3)CC2)CC1Cc1ccccc1 (stereo not drawn) [Compound 60]
17 | 0.191 | ~7.76 | ~3.16 | O=C(C1CC1)N1CCC(N2CCN(CC3CCN(C(=O)c4cc(C(F)(F)F)cc(C(F)(F)F)c4)C(Cc4ccccc4)C3)CC2)CC1 (stereo not drawn) [Compound 15]
18 | 0.117 | > 10 | > 10 | O=C(c1ccccc1)N1CCC(N2CCN(C[C@H]3CCN(C(=O)c4cc(C(F)(F)F)cc(C(F)(F)F)c4)[C@H](Cc4ccccc4)C3)CC2)C1 (stereo partly drawn) [Compound 64]
19 | 0.105 | > 10 | > 10 | O=C(c1cccnc1)N1CCC(N2CCN(C[C@H]3CCN(C(=O)c4cc(C(F)(F)F)cc(C(F)(F)F)c4)[C@H](Cc4ccccc4)C3)CC2)C1 (stereo partly drawn) [Compound 65]
20 | 0.0363 | 2.51 | 8.91 | O=C(c1ccoc1)N1CCC(N2CCN(CC3(O)CCN(C(=O)c4cc(C(F)(F)F)cc(C(F)(F)F)c4)C(Cc4ccccc4)C3)CC2)C1 (stereo not drawn) [Compound 78]
21 | 0.024 | 0.871 | 6.76 | O=C(C1CCOC1)N1CCC(N2CCN(C(=O)[C@H]3CCN(C(=O)c4cc(C(F)(F)F)cc(C(F)(F)F)c4)[C@H](Cc4ccccc4)C3)CC2)CC1 (stereo partly drawn) [Compound 92]
22 | 0.0398 | 4.27 | 7.76 | Cc1nnsc1C(=O)N1CCC(N2CCN(CC3(O)CCN(C(=O)c4cc(C(F)(F)F)cc(C(F)(F)F)c4)C(Cc4ccccc4)C3)CC2)C1 (stereo not drawn) [Compound 93]
